Experimental findings from ChEMBL document CHEMBL5149998, “Synthetic access to thiolane-based therapeutics and biological activity studies” (Eur J Med Chem, 2021) are described below.

Values after ≈ are worked out from the molar mass of the structure shown.

In one assay the test system is Jurkat. As to the kind of experiment: Anticancer activity against human Jurkat T cells assessed as cell growth inhibition. The class given is functional, cell-based.
For another assay, the system named is HT-29. Put plainly: Anticancer activity against human HT-29 cells assessed as cell growth inhibition. The class given is functional, cell-based.
For another assay, the system named is Enterococcus. As to the kind of experiment: Antibacterial activity against vancomycin resistant Enterococcus incubated for 24 hrs by broth microdilution method. The assay is classed as functional.
The next assay deals with Staphylococcus aureus. Put plainly: Antibacterial activity against methicillin resistant Staphylococcus aureus incubated for 24 hrs by broth microdilution method. The assay is classed as functional.
Another assay concerns U-937. Put plainly: Anticancer activity against human U-937 cells assessed as cell growth inhibition. The assay is classed as functional, cell-based.
For assay [1], the system named is B16. Put plainly: Anticancer activity against mouse B16 cells assessed as cell growth inhibition. The class given is functional, cell-based.
In assay [2] the test system is B16. As to the kind of experiment: Antitumor activity against mouse B16 cells implanted in mouse assessed as inhibition of lung tumor formation at 5 mg/kg, po measured after 10 days relative to control. The class given is functional. Set-up: scale not given: the % may be the effect or the level left. As to conditions: time 10 day.
In assay [3] the target is Prostaglandin G/H synthase 1 (Homo sapiens, UniProt P23219). Put plainly: Inhibition of COX-1 (unknown origin) using arachidonic acid as substrate assessed as PGH2 level preincubated for 5 mins followed by substrate addition and measured after 1 min by UHPLC-MS/MS analysis.
Chain of Prostaglandin G/H synthase 1 (P23219 whole entry): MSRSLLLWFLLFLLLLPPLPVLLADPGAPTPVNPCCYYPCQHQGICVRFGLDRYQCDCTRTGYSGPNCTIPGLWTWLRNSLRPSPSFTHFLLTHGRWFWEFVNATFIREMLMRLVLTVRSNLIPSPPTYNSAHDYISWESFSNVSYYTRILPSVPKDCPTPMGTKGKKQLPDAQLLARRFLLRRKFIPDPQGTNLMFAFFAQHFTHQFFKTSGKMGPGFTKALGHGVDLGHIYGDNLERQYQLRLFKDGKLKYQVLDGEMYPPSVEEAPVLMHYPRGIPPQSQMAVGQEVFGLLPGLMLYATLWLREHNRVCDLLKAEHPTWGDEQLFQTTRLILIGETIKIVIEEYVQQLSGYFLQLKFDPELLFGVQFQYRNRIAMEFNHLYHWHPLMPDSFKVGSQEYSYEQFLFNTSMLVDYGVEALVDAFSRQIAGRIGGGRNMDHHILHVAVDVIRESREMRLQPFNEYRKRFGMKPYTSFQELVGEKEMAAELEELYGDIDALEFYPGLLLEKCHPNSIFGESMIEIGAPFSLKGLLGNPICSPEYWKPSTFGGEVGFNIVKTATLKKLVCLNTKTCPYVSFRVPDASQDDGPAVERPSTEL
A short description of assay [4]: Inhibition of Saccharomyces alpha-glucosidase using p-nitrophenyl-alpha-D-glucopyranoside as substrate assessed as substrate hydrolysis incubated for 15 mins by spectrophotometer analysis. On the set-up: species or system Saccharomyces sp.
The test system of another assay is Histoplasma capsulatum. As to the kind of experiment: Antifungal activity against Histoplasma capsulatum. The class given is functional.
In a further assay the test system is Blastomyces dermatitidis. Put plainly: Antifungal activity against Blastomyces dermatitidis. The assay is classed as functional.

As for `C1=[N+](CCCCc2ccccc2)CCCC12CCCO2` (centres undefined), the EC50 with Jurkat is 38000 nM; in the assay on HT-29, 87000 nM.
Regarding `CCn1cc(C(=O)O)c(=O)c2cc(F)c(N3CCNCC3)cc21` [NORFLOXACIN], the results for the MIC against Enterococcus and against Staphylococcus aureus were 4 µg/mL (≈ 12.5 µM) and 0.5 µg/mL (≈ 1.57 µM), respectively.
Regarding `CSC1(SC)CC[C@H]2[C@H](C)CC[C@@H](c3ccccc3)N2[C@@H]1O`, in the assay with U-937, the IC50 was determined as 10000 nM.
`C[C@@H]1CC[C@@H](c2ccoc2)N2[C@H]1CC[C@]1(CS[C@@]3(CC[C@H]4[C@H](C)CC[C@@H](c5ccoc5)N4[C@@H]3O)C1)[C@H]2O`: in the assay on U-937, the IC50 turned out to be 2500 nM.
For `CS[C@@]1(C)CC[C@@H]2[C@@H](C)CC[C@H](c3ccccc3)N2[C@H]1O`, the IC50 in the assay on U-937 is 5000 nM.
As to `C[C@@H]1CC[C@@H](c2ccoc2)N2C[C@@]3(CC[C@@H]12)CS[C@@]1(CC[C@H]2[C@H](C)CC[C@@H](c4ccoc4)N2[C@@H]1O)C3`, the IC50 in the assay with U-937 is 5000 nM; in the assay with B16 [1], 29 nM. In the assay with B16 [2], the Activity was above 90%.
As for `CC1CCC(c2ccoc2)N2C1CCC1(CSC3(CCC4C(C)CCC(c5ccoc5)N4C3O)C1)C2O` (centres undefined), the EC50 in the assay on Jurkat came to 263 nM; in the assay on HT-29, 547 nM.
In the case of `C/C=C/[S+]([O-])SC1SC(O)C(C)C1C` (centres undefined), the figures for the IC50 in assay [3] and in assay [4] were 52 nM and 710 nM, respectively.
For `C=CC[C@]1(SC)CC[C@@H]2[C@@H](C)CC[C@H](c3ccc(F)cc3)N2[C@H]1O`, the IC50 in the assay on U-937 is 5000 nM.
As to `C[C@@H]1CC[C@@H](c2ccoc2)N2C[C@@]3(CC[C@@H]12)CS[C@]1(CC[C@H]2[C@H](C)CC[C@@H](c4ccoc4)N2[C@@H]1O)C3` [6-HYDROXYTHIONUPHLUTINE B], the IC50 in the assay on B16 [1] turned out to be 360 nM.
Regarding `CSC1(SC)CCC2C(C)CCC(c3ccccc3)N2C1O` (racemic), the IC50 in the assay with U-937 stood at 5000 nM.
`C1=[N+](Cc2ccccc2)CCCC12CSC1(C=[N+](Cc3ccccc3)CCC1)C2` (centres undefined): the results for the EC50 in the assay with Jurkat and with HT-29 were 1600 nM and 2300 nM, respectively.
`NCC[C@H](O)C(=O)N[C@@H]1C[C@H](N)[C@@H](O[C@H]2O[C@H](CN)CC[C@H]2N)[C@H](O)[C@H]1O[C@H]1O[C@H](CO)[C@@H](O)[C@H](N)[C@H]1O` [ARBEKACIN] returned an MIC against Staphylococcus aureus of 0.5 µg/mL (≈ 0.905 µM).
For `C[C@@H]1CC[C@@H](c2ccccc2)N2[C@@H](O)[C@@](C)(Sc3ccccc3)CC[C@@H]12`, the IC50 with U-937 is 2500 nM.
On to `C1=[N+](CCCCc2ccccc2)CCCC12CCCS2` (centres undefined), for which the results for the EC50 in the assay with Jurkat and in the assay on HT-29 were 6300 nM and 12000 nM, respectively.
On the same counts, the results for `C1=[N+](CCCCc2ccccc2)CCCC12CSC1(C=[N+](CCCCc3ccccc3)CCC1)C2` (centres undefined) are 1200 nM and 2100 nM.
Regarding `CN[C@H](CC(C)C)C(=O)N[C@H]1C(=O)N[C@@H](CC(N)=O)C(=O)N[C@H]2C(=O)N[C@H]3C(=O)N[C@H](C(=O)N[C@H](C(=O)O)c4cc(O)cc(O)c4-c4cc3ccc4O)[C@H](O)c3ccc(c(Cl)c3)Oc3cc2cc(c3O[C@@H]2O[C@H](CO)[C@@H](O)[C@H](O)[C@H]2O[C@H]2C[C@](C)(N)[C@H](O)[C@H](C)O2)Oc2ccc(cc2Cl)[C@H]1O` [VANCOMYCIN], the lowest concentration to inhibit growth in the assay on Enterococcus (MIC) was 0.5 µg/mL (≈ 0.345 µM).
Turning to `COc1ccc([C@H]2CC[C@H](C)[C@H]3CCC(SC)(SC)[C@H](O)N23)cc1`, the IC50 with U-937 was 5000 nM.
`CSC1(SC)CC[C@@H]2[C@@H](C)CC[C@H](c3ccc(F)cc3)N2[C@H]1O`: in the assay with U-937, the IC50 is 5000 nM.
On the same count and under the same terms, then `C[C@H]1CC[C@H](c2ccoc2)N2[C@@H]1CC[C@]1(CS[C@]3(CC[C@@H]4[C@@H](C)CC[C@H](c5ccoc5)N4[C@H]3O)C1)[C@@H]2O`, with 5000 nM.
For the compound `FC(F)(F)c1ccc(C[N+]2=CC3(CCC2)CSC2(C=[N+](Cc4ccc(C(F)(F)F)cc4)CCC2)C3)cc1` (centres undefined), the figures for the EC50 with Jurkat and in the assay on HT-29 were 1800 nM and 2400 nM, respectively.
As to `C[C@H]1CC[C@H](c2ccccc2)N2[C@@H]1CC[C@@](C)(Sc1ccccc1)[C@@H]2O`, the IC50 with U-937 stood at 2500 nM.
`C1=[N+](CCCCc2ccccc2)CCCC12CCC2`: the EC50 worked out at 9600 nM in the assay on Jurkat and 43000 nM with HT-29.
In turn, `CC(=O)NC[C@H]1CN(c2ccc(N3CCOCC3)c(F)c2)C(=O)O1` [LINEZOLID] gave an MIC against Staphylococcus aureus of 1 µg/mL (≈ 2.96 µM).
Consider `CC1CCC(c2ccccc2)N2C1CCC(C)(Sc1ccccc1)C2O` (racemic), for which, in the assay on U-937, the IC50 came to 5000 nM.
As to `C[C@H]1CC[C@H](c2ccoc2)N2[C@@H]1CC[C@@]1(CS[C@]3(CC[C@@H]4[C@@H](C)CC[C@H](c5ccoc5)N4[C@H]3O)C1)[C@@H]2O`, in the assay with U-937, the IC50 amounted to 2500 nM.
Turning to `C#CC[C@@]1(SC)CC[C@@H]2[C@@H](C)CC[C@H](c3ccccc3)N2[C@H]1O`, the IC50 in the assay with U-937 was 2500 nM.
In the case of `C[C@@H]1CC[C@@H](c2ccoc2)N2[C@H]1CC[C@@]1(CS[C@@]3(CC[C@H]4[C@H](C)CC[C@@H](c5ccoc5)N4[C@@H]3O)C1)[C@H]2O`, the figures for the minimal inhibitory concentration (MIC) against Enterococcus and in the assay with Staphylococcus aureus were 2 µg/mL (≈ 3.8 µM) and 1 µg/mL (≈ 1.9 µM), respectively. Moreover, the Activity in the assay on Histoplasma capsulatum and in the assay on Blastomyces dermatitidis was 100 µg/mL in each case. Moreover, the results for the IC50 with U-937 and in the assay with B16 [1] were 5000 nM and 87 nM, respectively.
Turning to `CS[C@@]1(C)CC[C@@H]2[C@@H](C)CC[C@H](c3ccc(F)cc3)N2[C@H]1O`, the IC50 in the assay on U-937 was 5000 nM.
As for `C[C@@H]1CC[C@@H](c2ccoc2)N2[C@H]1CC[C@]1(CS[C@]3(CC[C@H]4[C@H](C)CC[C@@H](c5ccoc5)N4[C@@H]3O)C1)[C@H]2O`, the IC50 in the assay on U-937 turned out to be 1250 nM.
Still for that read-out and setting: for `C#CCC1(SC)CCC2C(C)CCC(c3ccccc3)N2C1O` (racemic) the value was 5000 nM.
On the same count and under the same terms, for `C[C@H]1CC[C@H](c2ccoc2)N2[C@@H]1CC[C@]1(CS[C@@]3(CC[C@@H]4[C@@H](C)CC[C@H](c5ccoc5)N4[C@H]3O)C1)[C@@H]2O` the value was 5000 nM; for `C[C@H]1CC[C@H](c2ccoc2)N2[C@@H]1CC[C@@]1(CS[C@@]3(CC[C@@H]4[C@@H](C)CC[C@H](c5ccoc5)N4[C@H]3O)C1)[C@@H]2O`, 2500 nM.
Take `C=C1C=[N+](CCCCc2ccccc2)CCC1`: the EC50 in the assay with Jurkat was determined as 17000 nM; with HT-29, 45000 nM.
`COc1ccc(C[N+]2=CC3(CCC2)CSC2(C=[N+](Cc4ccc(OC)cc4)CCC2)C3)cc1` (centres undefined): the EC50 with Jurkat came out at 1800 nM; in the assay on HT-29 it was 2800 nM.
As to `C[C@H]1CC[C@H](c2ccccc2)N2[C@@H]1CC[C@](C)(Sc1ccccc1)[C@@H]2O`, in the assay on U-937, the IC50 was determined as 5000 nM.
As for `C#CC[C@]1(SC)CC[C@@H]2[C@@H](C)CC[C@H](c3ccccc3)N2[C@H]1O`, the IC50 in the assay on U-937 was determined as 2500 nM.
Consider `COc1ccc([C@H]2CC[C@H](C)[C@H]3CC[C@@](C)(SC)[C@H](O)N23)cc1`, for which, in the assay with U-937, the IC50 came to 1250 nM.
`CS[C@]1(C)CC[C@@H]2[C@@H](C)CC[C@H](c3ccc(F)cc3)N2[C@H]1O`: the half-inhibitory concentration (IC50) with U-937 came out at 1250 nM.
Still for that read-out and setting: then `CS[C@]1(C)CC[C@@H]2[C@@H](C)CC[C@H](c3ccccc3)N2[C@H]1O`, with 625 nM; and `CSC1(SC)CC[C@@H]2[C@@H](C)CC[C@H](c3ccccc3)N2[C@H]1O`, with 1250 nM.
With `COc1ccc([C@H]2CC[C@H](C)[C@H]3CC[C@](C)(SC)[C@H](O)N23)cc1`, the IC50 in the assay with U-937 came to 5000 nM.
With `C[C@H]1CC[C@H](c2ccoc2)N2C[C@]3(CC[C@H]12)CS[C@]1(CC[C@@H]2[C@@H](C)CC[C@H](c4ccoc4)N2[C@H]1O)C3`, in the assay with U-937, the IC50 is 5000 nM.
`Cc1onc(-c2ccccc2)c1C(=O)N[C@@H]1C(=O)N2[C@@H]1SC(C)(C)[C@@H]2C(=O)O` [OXACILLIN] had an MIC in the assay with Staphylococcus aureus of 0.06 µg/mL (≈ 0.149 µM).
Consider `C[C@@H]1CC[C@@H](c2ccoc2)N2[C@H]1CC[C@@]1(CS[C@]3(CC[C@H]4[C@H](C)CC[C@@H](c5ccoc5)N4[C@@H]3O)C1)[C@H]2O`, for which the IC50 with U-937 was found to be 2500 nM.
For the compound `CSC1(C)CCC2C(C)CCC(c3ccccc3)N2C1O` (racemic), the IC50 in the assay with U-937 worked out at 3000 nM.
